Experimental data from ChEMBL document CHEMBL6109135, “Development of Diphenyl-1,2,4-Oxadiazole Analogues as Allosteric Modulators of the RXFP3 Receptor: Evaluation of Importance of the N-Substituted-2-Pyrrolidone Moiety in RLX-33” (J Med Chem, 2025).
Values belong to the molecule of their own block, whether it stands above or below them.

Key:
Relaxin-3 receptor 2 = Relaxin-3 receptor 2 (Homo sapiens, UniProt Q8TDU9); assay: Negative allosteric modulation of human RXFP4 receptor expressed in CHO-K1 cells assessed as cAMP accumulation incubated for 30 mins by TR-FRET assay; type: functional, cell-based
Relaxin receptor 1 = molecular target: T1, Relaxin receptor 1 (Homo sapiens, UniProt Q9HBX9); assay: Negative allosteric modulation of human RXFP1 receptor expressed in CHO-K1 cells assessed as cAMP accumulation incubated for 30 mins by TR-FRET assay; type: functional, cell-based
T1 sequence (Q9HBX9 whole entry): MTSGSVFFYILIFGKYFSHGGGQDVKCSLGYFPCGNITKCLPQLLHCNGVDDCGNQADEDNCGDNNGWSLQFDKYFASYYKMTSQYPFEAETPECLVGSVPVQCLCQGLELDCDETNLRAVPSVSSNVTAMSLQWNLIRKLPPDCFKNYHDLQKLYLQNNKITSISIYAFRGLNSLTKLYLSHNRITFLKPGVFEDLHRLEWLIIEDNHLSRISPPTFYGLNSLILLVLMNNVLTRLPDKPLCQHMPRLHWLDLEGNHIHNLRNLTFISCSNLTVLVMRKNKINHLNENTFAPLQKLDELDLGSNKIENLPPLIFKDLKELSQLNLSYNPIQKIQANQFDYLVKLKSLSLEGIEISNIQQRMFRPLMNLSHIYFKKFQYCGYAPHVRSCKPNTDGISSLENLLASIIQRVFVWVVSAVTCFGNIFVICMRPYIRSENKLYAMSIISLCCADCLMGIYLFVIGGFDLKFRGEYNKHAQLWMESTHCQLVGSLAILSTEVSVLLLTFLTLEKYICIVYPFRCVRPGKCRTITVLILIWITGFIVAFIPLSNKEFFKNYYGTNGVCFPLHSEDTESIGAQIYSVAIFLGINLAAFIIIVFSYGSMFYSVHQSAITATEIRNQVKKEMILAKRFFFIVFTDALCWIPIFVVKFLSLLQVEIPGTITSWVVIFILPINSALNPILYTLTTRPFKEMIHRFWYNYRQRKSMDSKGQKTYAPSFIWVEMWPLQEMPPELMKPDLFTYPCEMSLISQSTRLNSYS

Relaxin-3 receptor 1 [1] = molecular target: T2, Relaxin-3 receptor 1 (Homo sapiens, UniProt Q9NSD7); assay: Negative allosteric modulation of human RXFP3 receptor expressed in CHO-K1 cells assessed as cAMP accumulation incubated for 30 mins in presence of forskolin by TR-FRET assay; type: functional, cell-based
T2 sequence (Q9NSD7 whole entry): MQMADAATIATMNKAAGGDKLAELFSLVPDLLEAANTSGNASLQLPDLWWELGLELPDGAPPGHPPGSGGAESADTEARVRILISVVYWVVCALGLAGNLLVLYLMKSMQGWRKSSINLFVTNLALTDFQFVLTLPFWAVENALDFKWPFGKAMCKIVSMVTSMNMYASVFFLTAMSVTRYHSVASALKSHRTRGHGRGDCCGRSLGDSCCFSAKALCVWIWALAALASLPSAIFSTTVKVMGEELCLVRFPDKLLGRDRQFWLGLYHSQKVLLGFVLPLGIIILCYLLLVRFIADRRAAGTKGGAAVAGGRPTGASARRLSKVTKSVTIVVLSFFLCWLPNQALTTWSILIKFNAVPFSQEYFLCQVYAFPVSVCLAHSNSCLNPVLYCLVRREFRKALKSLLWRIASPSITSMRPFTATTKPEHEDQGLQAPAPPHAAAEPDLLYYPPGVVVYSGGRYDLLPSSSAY

Relaxin-3 receptor 1 [2] = molecular target: T2, Relaxin-3 receptor 1; assay: Negative allosteric modulation of human RXFP3 receptor expressed in CHO-K1 cell membrane assessed as inhibition of relaxin-3-induced stimulation of [35S]GTPgammaS binding followed by relaxin-3 addition and measured after 1 hr; type: functional, cell membranes
[3] = Kinetic solubility of compound in PBS at pH 7.4 incubated under agitation for 2 hrs by LC-MS/MS analysis; type: physicochemical
[4] = Efflux ratio of apparent permeability across basolateral to apical over apical to basolateral side in MDCK-MDR1 cells at 10 uM incubated for 30 to 90 mins; type: ADME, cell-based, Canis lupus familiaris; conditions: dog, time 30-90 min
[5] = Metabolic stability in rat liver microsomes assessed as half life measured up to 45 mins by LC-MS/MS analysis; type: ADME, Microsome
[6] = Apparent permeability of compound across basolateral to apical side in MDCK-MDR1 cells at 10 uM incubated for 30 to 90 mins; type: ADME, cell-based, Canis lupus familiaris; conditions: dog
[7] = Apparent permeability compound across apical to basolateral side in MDCK-MDR1 cells at 10 uM incubated for 30 to 90 mins; type: ADME, cell-based, Canis lupus familiaris; conditions: dog
[8] = Metabolic stability in rat liver microsomes assessed as clearance measured up to 45 mins by LC-MS/MS analysis; type: ADME, Microsome; conditions: 0.75 h
[9] = Cmax in female Wistar rat plasma at 10 mg/kg, ip administrated as single dose and measured 24 hrs post dose by LC-MS/MS analysis; type: ADME, organism-based; conditions: in vivo
[10] = Brain concentration in male Wistar rat at 10 mg/kg, ip measured after 24 hrs; type: ADME, organism-based; conditions: in vivo
[11] = Cmax in female Wistar rat brain at 10 mg/kg, ip measured 24 hrs post dose by LC-MS/MS analysis; type: ADME, organism-based
[12] = Tmax in male Wistar rat brain at 10 mg/kg, ip measured 24 hrs post dose by LC-MS/MS analysis; type: ADME, organism-based; conditions: in vivo
[13] = Tmax in female Wistar rat brain at 10 mg/kg, ip measured 24 hrs post dose by LC-MS/MS analysis; type: ADME, organism-based; conditions: in vivo
[14] = AUClast in female Wistar rat brain at 10 mg/kg, ip measured 24 hrs post dose by LC-MS/MS analysis; type: ADME, organism-based
[15] = Half life in male Wistar rat plasma at 10 mg/kg, ip administrated as single dose and measured 24 hrs post dose by LC-MS/MS analysis; type: ADME, organism-based; conditions: in vivo
[16] = AUClast in female Wistar rat plasma at 10 mg/kg, ip administrated as single dose and measured 24 hrs post dose by LC-MS/MS analysis; type: ADME, organism-based
[17] = Half life in female Wistar rat plasma at 10 mg/kg, ip administrated as single dose and measured 24 hrs post dose by LC-MS/MS analysis; type: ADME, organism-based; conditions: in vivo
[18] = Tmax in male Wistar rat plasma at 10 mg/kg, ip administrated as single dose and measured 24 hrs post dose by LC-MS/MS analysis; type: ADME, organism-based; conditions: in vivo
[19] = Cmax in male Wistar rat brain at 10 mg/kg, ip measured 24 hrs post dose by LC-MS/MS analysis; type: ADME, organism-based
[20] = Brain concentration in female Wistar rat at 10 mg/kg, ip measured after 24 hrs; type: ADME, organism-based; conditions: in vivo
[21] = AUClast in male Wistar rat brain at 10 mg/kg, ip measured 24 hrs post dose by LC-MS/MS analysis; type: ADME, organism-based
[22] = Clearance in male Wistar rat plasma at 10 mg/kg, ip administrated as single dose and measured 24 hrs post dose by LC-MS/MS analysis; type: ADME, organism-based
[23] = Tmax in female Wistar rat plasma at 10 mg/kg, ip administrated as single dose and measured 24 hrs post dose by LC-MS/MS analysis; type: ADME, organism-based; conditions: in vivo
[24] = Clearance in female Wistar rat plasma at 10 mg/kg, ip administrated as single dose and measured 24 hrs post dose by LC-MS/MS analysis; type: ADME, organism-based
[25] = Cmax in male Wistar rat plasma at 10 mg/kg, ip administrated as single dose and measured 24 hrs post dose by LC-MS/MS analysis; type: ADME, organism-based; conditions: in vivo
[26] = AUClast in male Wistar rat plasma at 10 mg/kg, ip administrated as single dose and measured 24 hrs post dose by LC-MS/MS analysis; type: ADME, organism-based
[27] = Plasma protein binding in Wistar rat at 1 uM incubated for 6 hrs by LC-MS/MS analysis; type: ADME, cell-free
[28] = mdck-mdr1, 10 µM, time 30-90 min

Relaxin-3 receptor 2, sequence (Q8TDU9 whole entry): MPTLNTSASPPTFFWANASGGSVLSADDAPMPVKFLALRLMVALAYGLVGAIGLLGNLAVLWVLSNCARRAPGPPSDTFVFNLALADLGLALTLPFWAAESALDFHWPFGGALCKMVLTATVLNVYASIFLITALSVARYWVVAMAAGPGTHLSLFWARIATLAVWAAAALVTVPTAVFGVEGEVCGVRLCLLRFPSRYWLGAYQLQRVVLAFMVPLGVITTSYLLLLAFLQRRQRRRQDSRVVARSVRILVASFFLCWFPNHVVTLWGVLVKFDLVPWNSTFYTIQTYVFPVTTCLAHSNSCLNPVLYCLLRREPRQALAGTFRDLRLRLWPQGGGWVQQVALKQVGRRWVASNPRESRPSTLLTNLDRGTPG

IC50 (Relaxin-3 receptor 2): 14300 nM
IC50 (Relaxin receptor 1): > 100000 nM
SMILES: CNCCN1CCC(C(=O)Nc2ccc(-c3nc(-c4ccc(Cl)cc4)no3)cc2)CC1

IC50 (Relaxin-3 receptor 1 [2]): 960 nM
SMILES: O=C(Nc1ccc(-c2nc(-c3ccc(Cl)cc3)no2)cc1)C1CC(=O)N(CC2CCCCN2)C1 (racemic)

solubility kinetic at 2 h ([3]; PBS, pH 7.4, read-out: Kinetic_solubility): < 1 µM
efflux ratio at 10 µM [4]: 1
IC50 (Relaxin-3 receptor 1 [1]; cho-k1): 2360 nM
IC50 (Relaxin-3 receptor 1 [2]): 3020 nM
half-life ([5]; liver microsomes): 0.177 h
Papp B→A at 10 µM ([6]; MDCK-MDR1, time 30-90 min): 1.3 ×10⁻⁶ cm/s
Papp A→B at 10 µM ([7]; MDCK-MDR1, time 30-90 min): 1.3 ×10⁻⁶ cm/s
CLH [8]: 132 µL/min/mg
SMILES: O=C(Nc1ccc(-c2nc(-c3ccc(Cl)cc3)no2)cc1)C1CC(=O)N(Cc2ccco2)C1 (stereo not given)

IC50 (Relaxin-3 receptor 1 [2]): 2630 nM
SMILES: O=C(Nc1ccc(-c2nc(-c3ccc(Cl)cc3)no2)cc1)C1CC(=O)N(Cc2cccnc2)C1 (stereo not given)

IC50 (Relaxin-3 receptor 1 [2]): 1700 nM
SMILES: O=C(Nc1ccc(-c2nc(-c3ccc(Cl)cc3)no2)cc1)C1CC(=O)N(CC2CCNC2)C1 (racemic)

IC50 (Relaxin-3 receptor 1 [2]): 1180 nM
SMILES: CNCCCN1CC(C(=O)Nc2ccc(-c3nc(-c4ccc(Cl)cc4)no3)cc2)CC1=O (stereo not given)

Further lines, the molecule ahead of its results:

SMILES: CNCCC(=O)Nc1ccc(-c2nc(-c3ccc(Cl)cc3)no2)cc1
IC50 (Relaxin-3 receptor 1 [1]): 590 nM
IC50 (Relaxin-3 receptor 2): 4870 nM
IC50 (Relaxin-3 receptor 1 [2]): 1050 nM
IC50 (Relaxin receptor 1): 19600 nM

SMILES: CNCC(=O)Nc1ccc(-c2nc(-c3ccc(Cl)cc3)no2)cc1
IC50 (Relaxin-3 receptor 1 [2]): 2630 nM

SMILES: CNCCN1CC(C(=O)Nc2ccc(-c3nc(-c4ccc(Cl)cc4)no3)cc2)CC1=O (stereo not given)
IC50 (Relaxin-3 receptor 2): 34300 nM
IC50 (Relaxin receptor 1): > 100000 nM

SMILES: NCCN1CC(C(=O)Nc2ccc(-c3nc(-c4ccc(Cl)cc4)no3)cc2)CC1=O (stereo not given)
IC50 (Relaxin-3 receptor 1 [2]): 1450 nM

SMILES: O=C(Nc1ccc(-c2nc(-c3ccc(Cl)cc3)no2)cc1)C1CC(=O)N(CC2CCNCC2)C1 (stereo not given)
IC50 (Relaxin-3 receptor 1 [2]): 710 nM

SMILES: CNCCCC(=O)Nc1ccc(-c2nc(-c3ccc(Cl)cc3)no2)cc1
IC50 (Relaxin-3 receptor 1 [2]): 2090 nM

SMILES: O=C(Nc1ccc(-c2nc(-c3ccc(Cl)cc3)no2)cc1)[C@@H]1CC(=O)N(C[C@@H]2CCCNC2)C1
Cmax [9]: 2117 ng/mL
Kinetic_solubility ([3]; buffer, pH 7.4, 2 h): 10.1 µM
Drug uptake [10]: Active
Cmax [11]: 157 ng/mL
Tmax [12]: 1 h
Tmax [13]: 2 h
IC50 (Relaxin-3 receptor 2): > 100000 nM
AUC(0-t) at 24 h [14]: 1930 ng·h/mL
t1/2 [15]: 12 h
AUC(0-t) at 24 h [16]: 8130 ng·h/mL
t1/2 [17]: 10 h
Tmax [18]: 0.5 h
Cmax [19]: 185 ng/mL
Drug uptake [20]: Active
t1/2 ([5]; microsomes, 0.75 h): 3.42 h
AUC(0-t) at 24 h [21]: 3270 ng·h/mL
CL/F [22]: 18 mL/min/kg
IC50 (Relaxin receptor 1): > 100000 nM
Papp [6, 28]: 3.1 10^-6 cm/s
Tmax [23]: 0.5 h
CL/F [24]: 18 mL/min/kg
Cmax [25]: 2121 ng/mL
AUC(0-t) at 24 h [26]: 7370 ng·h/mL
PPB [27]: 98%
Papp [7, 28]: 1.1 10^-6 cm/s
CLH [8]: 6.8 µL/min/mg
